Results reported in US20250214990A1, “DIACYLGLYCEROL KINASE (DGK) ALPHA INHIBITORS AND USES THEREOF” (Insilico Medicine IP Limited, priority 2022, published 2025).

Key:
[1] = test system: Human Pan T cells; test: IL-2 Release Detection Assay; assay type: cell-based; conditions: T-cell; for EC50: IL-2 in supernatant by ELISA, anti-CD3 pre-coated plate, 24 hours; for maximal fold induction: Top activation/DMSO control; for activity at 0.1 µM: curve value at 100 nM/DMSO control*100%, read-out: Activation % at 100 nM
Protocol: Isolate Human Pan T cells from PBMC according to T cell isolation kit (Stemcell, 17951). The suspend T cell in RPMI 1640 medium containing 10% FBS, 1% PS and 55 µM β-Mer at a density of 3*10^6 cells/well/3 ml are seeded into 6 well plate, recovered overnight at 37° C.&[…]. Harvest overnight recovered T cells are suspended in fresh RPMI1640 medium containing 10% FBS, 1% PS and 55 μM f-Mer, seeded 1*10^5/well/200 μl cells into the anti-CD3 pre-coated 96 well plate. Add dilutions of compounds into the cells and incubate at 37° C.&5% CO2 for 24 hours. IL-2 in cell supernatant was detected by ELISA Kit (R&D, DY202). Fit the compound EC50 in non-linear regression equation: Y=Bottom+(Top−Bottom)/(1+10^((Log EC50−X)*HillSlope)), X=compound concentration, Y=Activation %. Top and Bottom: Plateaus in same units as Y. Log EC50: same log units as X. Activation fold: Top activation/DMSO control. Activation % at 100 nM: Activation of non-linear regression equation curve at the concentration of 100 nM/DMSO control*100%.

[2] = target: T1, DGKA (Homo sapiens, UniProt P23743); test: DGKA Inhibition ADP-Glo Assay; assay type: biochemical; conditions: 40 μM ATP
T1 construct: purchased SignalChem D21-10BG
T1 sequence (P23743 whole entry): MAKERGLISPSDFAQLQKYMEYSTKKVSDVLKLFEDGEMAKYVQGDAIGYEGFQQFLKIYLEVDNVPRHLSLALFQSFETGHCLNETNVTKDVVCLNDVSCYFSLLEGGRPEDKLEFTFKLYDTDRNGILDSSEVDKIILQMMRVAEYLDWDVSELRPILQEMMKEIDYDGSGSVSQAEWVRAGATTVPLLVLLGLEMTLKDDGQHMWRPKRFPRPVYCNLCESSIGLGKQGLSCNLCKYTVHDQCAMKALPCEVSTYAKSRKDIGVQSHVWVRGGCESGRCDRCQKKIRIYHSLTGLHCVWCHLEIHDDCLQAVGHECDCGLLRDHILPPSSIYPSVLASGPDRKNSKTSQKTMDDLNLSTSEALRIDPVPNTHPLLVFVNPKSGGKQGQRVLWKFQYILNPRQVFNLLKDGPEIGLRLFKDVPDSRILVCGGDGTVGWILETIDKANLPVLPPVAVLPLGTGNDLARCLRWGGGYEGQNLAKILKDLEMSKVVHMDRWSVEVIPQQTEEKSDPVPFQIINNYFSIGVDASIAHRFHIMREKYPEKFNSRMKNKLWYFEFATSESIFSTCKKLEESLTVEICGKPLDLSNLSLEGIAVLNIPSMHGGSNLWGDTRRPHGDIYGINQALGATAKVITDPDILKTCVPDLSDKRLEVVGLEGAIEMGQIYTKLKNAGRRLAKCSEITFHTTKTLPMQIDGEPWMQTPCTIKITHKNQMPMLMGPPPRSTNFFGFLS
Protocol: The DGKA inhibition reactions were performed using ADP-Glo assay. The reactions were carried out in 50 mM HEPES, 100 mM NaCl, 10 mM MgCl2, 1 mM CaCl2, 0.005% TritonX-100 and 1 mM DTT as working solution (pH=7.5). 30 nL DMSO solution of each test compound (Top concentration […] with 10 point, 4-fold dilution series for each compound) were transferred to 384 well plate by Echo and 5 μL DGKA (SignalChem, D21-10BG) enzyme working solution at 2× final reaction concentration was added to each well. After incubated at 25° C. for 15 minutes, 5 μL substrate working solution contain 40 μM ATP (Promega, V915B) and 200 µM DLG (SignalChem, D430-59) were added to initiate reaction. After enzymatic reaction at 25° C. for 60 min, ADP Glo assay reagents (Promega, V9102) were added and luminescence was recorded using an EnVision following the instruction of manual. […] The IC50 value was calculated via a regression analysis of the inhibition rate.

[3] = Mouse PK profile after oral administration; assay type: in vivo, Male CD-1 mice; conditions: male, CD-1, plasma; mouse, oral, 5 mg/kg
Protocol: Species and strain: Male CD-1 mice of SPF. Source: Sino-British SIPPR/BK Lab Animal Ltd, Shanghai. 3 mice were orally gavage administrated with given compounds (Formulation: 5% DMSO+10% Solutol+85% Saline). The blood samples were taken via cephalic vein at timepoints 0.25 h, 0.5 h, 1 h, 2 h, 4 h, 6 h, 8 h and 24 h after oral gavage administration, 30 μL/time point. Blood samples were placed in tubes containing K2-EDTA and stored on ice until centrifuged. The blood samples were centrifuged at 6800 g for 6 minutes at 2-8° C. within 1 h after collected and stored frozen at approximately −80° C. An aliquot of 10 μL plasma samples were protein precipitated with 200 μL MeOH in which contains 10 ng/mL Verapamil (IS). The mixture was vortexed for 1 min and centrifuged at 18000 g for 7 min. Transfer 180 μL supernatant to 96 well plates. An aliquot of 6 μL supernatant was injected for LC-MS/MS analysis by LC-MS/MS-04 (API4000) instrument. The analytical results were confirmed using quality control samples for intra-assay variation. The accuracy of >66.7% of the quality control samples should be between 80-120% of the known value(s). Standard set of parameters including Area Under the Curve (AUC(0-t) and AUC(0-∞)), elimination half-live (T½), maximum plasma concentration (Cmax), will be calculated using noncompartmental analysis modules in FDA certified pharmacokinetic program Phoenix WinNonlin 7.0 (Pharsight, USA).

Row | SMILES | EC50 [1] | maximal fold induction [1] | activity at 0.1 µM [1] | IC50 [2] | AUC(0-inf) [3] | AUC(0-t) [3] | Cmax [3] | half-life [3]
1 | Cn1c(=O)cc(N2CCOCc3c(C#CC4(C(F)(F)F)CC4)cccc32)c2cc(Cl)ccc21 [Example 3, 6-chloro-1-methyl-4-(6-((1-(trifluoromethyl)cyclopropyl)ethynyl)-2,3-dihydrobenzo[e][1,4]oxazepin-1(5H)-yl)quinolin-2(1H)-one] | 422 nM | 6.3 | 247% | 1 to 10 nM | – | – | – | –
2 | Cn1c(=O)nc(N2CCOCc3c(C#CC4(C(F)(F)F)CC4)cccc32)c2cc(F)ccc21 [Example 9, 6-fluoro-1-methyl-4-(6-((1-(trifluoromethyl)cyclopropyl)ethynyl)-2,3-dihydrobenzo[e][1,4]oxazepin-1(5H)-yl)quinazolin-2(1H)-one] | 1370 nM | 13.2 | 180% | < 1 nM | – | – | – | –
3 | Cn1c(=O)nc(N2CCOCc3c(C#CC4(C(F)(F)F)CC4)cccc32)c2cc(C#N)c(OCCO)cc21 [Example 14, 7-(2-hydroxyethoxy)-1-methyl-2-oxo-4-(6-((1-(trifluoromethyl)cyclopropyl)ethynyl)-2,3-dihydrobenzo[e][1,4]oxazepin-1(5H)-yl)-1,2-dihydroquinazoline-6-carbonitrile] | 265 nM | 15.3 | 639% | < 1 nM | – | – | – | –
4 | Cn1c(=O)nc(N2CCOCc3c(C#CC4(C(F)(F)F)CC4)cccc32)c2cc(Cl)c(OCCCN)cc21 [Example 20, 7-(3-aminopropoxy)-6-chloro-1-methyl-4-(6-((1-(trifluoromethyl)cyclopropyl)ethynyl)-2,3-dihydrobenzo[e][1,4]oxazepin-1(5H)-yl)quinazolin-2(1H)-one] | 62.8 nM | 1.7 | 173% | 1 to 10 nM | – | – | – | –
5 | Cn1c(=O)nc(N2CCOCc3c(C#CC4(C(F)(F)F)CC4)cccc32)c2cc(Cl)c(OC3CCOCC3)cc21 [Example 25, 6-chloro-1-methyl-7-((tetrahydro-2H-pyran-4-yl)oxy)-4-(6-((1-(trifluoromethyl)cyclopropyl)ethynyl)-2,3-dihydrobenzo[e][1,4]oxazepin-1(5H)-yl)quinazolin-2(1H)-one] | 243 nM | 5.4 | 275% | < 1 nM | – | – | – | –
6 | Cn1c(=O)nc(N2CCOCc3c(C#CC4(C(F)(F)F)CC4)cccc32)c2cc(Cl)c(OCCN)cc21 [Example 32, 7-(2-aminoethoxy)-6-chloro-1-methyl-4-(6-((1-(trifluoromethyl)cyclopropyl)ethynyl)-2,3-dihydrobenzo[e][1,4]oxazepin-1(5H)-yl)quinazolin-2(1H)-one] | 702 nM | 33.9 | 540% | < 1 nM | – | – | – | –
7 | Cn1c(=O)cc(N2CCOCc3c(C#CC4(C(F)(F)F)CC4)cccc32)c2cc(C#N)ccc21 [Example 4, 1-methyl-2-oxo-4-(6-((1-(trifluoromethyl)cyclopropyl)ethynyl)-2,3-dihydrobenzo[e][1,4]oxazepin-1(5H)-yl)-1,2-dihydroquinoline-6-carbonitrile] | 479 nM | 10 | 313% | 1 to 10 nM | – | – | – | –
8 | Cn1c(=O)c(C#N)c(N2CCOCc3c(C#CC4(C(F)(F)F)CC4)cccc32)c2cc(F)ccc21 [Example 10, 6-fluoro-1-methyl-2-oxo-4-(6-((1-(trifluoromethyl)cyclopropyl)ethynyl)-2,3-dihydrobenzo[e][1,4]oxazepin-1(5H)-yl)-1,2-dihydroquinoline-3-carbonitrile] | 2610 nM | 5.8 | 95.5% | 1 to 10 nM | – | – | – | –
9 | COCCOc1cc2c(cc1Cl)c(N1CCOCc3c(C#CC4(C(F)(F)F)CC4)cccc31)nc(=O)n2C [Example 17, 6-chloro-7-(2-methoxyethoxy)-1-methyl-4-(6-((1-(trifluoromethyl)cyclopropyl)ethynyl)-2,3-dihydrobenzo[e][1,4]oxazepin-1(5H)-yl)quinazolin-2(1H)-one] | 1000 nM | 10.2 | 202% | < 1 nM | – | – | – | –
10 | Cn1c(=O)nc(N2CCOCc3c(C#CC4(C(F)(F)F)CC4)cccc32)c2cc(Cl)c(O[C@@H]3CCOC3)cc21 [Example 22, (R)-6-chloro-1-methyl-7-((tetrahydrofuran-3-yl)oxy)-4-(6-((1-(trifluoromethyl)cyclopropyl)ethynyl)-2,3-dihydrobenzo[e][1,4]oxazepin-1(5H)-yl)quinazolin-2(1H)-one] | – | – | – | < 1 nM | – | – | – | –
11 | Cn1c(=O)nc(N2CCOCc3c(C#CC4(C(F)(F)F)CC4)cccc32)c2cc(Cl)c(N3CCOCC3)cc21 [Example 19, 6-chloro-1-methyl-7-morpholino-4-(6-((1-(trifluoromethyl)cyclopropyl)ethynyl)-2,3-dihydrobenzo[e][1,4]oxazepin-1(5H)-yl)quinazolin-2(1H)-one] | 2190 nM | 25.2 | 234% | 1 to 10 nM | – | – | – | –
12 | Cn1c(=O)nc(N2CCOCc3c(C#CC4(C(F)(F)F)CC4)cccc32)c2nc(Cl)ccc21 [Example 7, 6-chloro-1-methyl-4-(6-((1-(trifluoromethyl)cyclopropyl)ethynyl)-2,3-dihydrobenzol[e][1,4]oxazepin-1(5H)-yl)pyrido[3,2-d]pyrimidin-2(1H)-one] | – | – | – | < 1 nM | – | – | – | –
13 | Cn1c(=O)nc(N2CCOCc3c(C#CC4(C(F)(F)F)CC4)cccc32)c2cc(Cl)c(OC3CCOC3)cc21 (stereo not shown) [Example 11, 6-chloro-1-methyl-7-((tetrahydrofuran-3-yl)oxy)-4-(6-((1-(trifluoromethyl)cyclopropyl)ethynyl)-2,3-dihydrobenzo[e][1,4]oxazepin-1(5H)-yl)quinazolin-2(1H)-one] | 335 nM | 8.6 | 324% | < 1 nM | – | – | – | –
14 | Cn1c(=O)nc(N2CCOCc3c(C#CC4(C(F)(F)F)CC4)cccc32)c2cc(C#N)c(OCCN)cc21 [Example 33, 7-(2-aminoethoxy)-1-methyl-2-oxo-4-(6-((1-(trifluoromethyl)cyclopropyl)ethynyl)-2,3-dihydrobenzo[e][1,4]oxazepin-1(5H)-yl)-1,2-dihydroquinazoline-6-carbonitrile] | 714 nM | 38.4 | 631% | < 1 nM | – | – | – | –
15 | Cn1c(=O)nc(N2CCOCc3c(C#CC4(C(F)(F)F)CC4)cccc32)c2cc(C#N)c(OC3CCOC3)cc21 (stereo not shown) [Example 12, 1-methyl-2-oxo-7-((tetrahydrofuran-3-yl)oxy)-4-(6-((1-(trifluoromethyl)cyclopropyl)ethynyl)-2,3-dihydrobenzo[e][1,4]oxazepin-1(5H)-yl)-1,2-dihydroquinazoline-6-carbonitrile] | 1080 nM | 14.2 | 311% | < 1 nM | 7870 ng·h/mL | 7740 ng·h/mL | 1690 ng/mL | 1.03 h
